Experimental findings from patent publication US12441691B2 (Cytokinetics, Inc., priority 2020, dated 2025) are described below.

This assay deals with rabbit skeletal myofibrils (fast skeletal myofibrils). The assay is described as follows: Activation of fast skeletal myofibrils (PUMA assay, AC1.4). In kind it is biochemical. To be noted: calcium at pCa25, AC1.4 = concentration at which the compound increased the enzymatic activity. In outline:
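Detergent-washed rabbit psoas myofibrils (~90% fast fibers), calcium set to give 25% of maximal rate (pCa25). ATPase followed by pyruvate kinase/lactate dehydrogenase-coupled NADH oxidation, absorbance at 340 nm. PM12 buffer: 12 mM PIPES, 2 mM MgCl2, 1 mM DTT, pH 6.8.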
In the case of `CC[C@H](C)[C@H]1C(=O)Nc2ccc(F)cc2CN1C(=O)c1ncn[nH]1` [Compound 343, (S)-3-((S)-sec-butyl)-7-fluoro-4-(1H-1,2,4-triazole-5-carbonyl)-1,3,4,5-tetrahydro-2H-benzo[e][1,4]diazepin-2-one], the AC1.4 amounted to 0.25 µM.
For `CC[C@H](C)[C@H]1C(=O)Nc2ccc(F)cc2CN1C(=O)c1cccc(=O)[nH]1` [Compound 344, (S)-3-((S)-sec-butyl)-7-fluoro-4-(6-oxo-1,6-dihydropyridine-2-carbonyl)-1,3,4,5-tetrahydro-2H-benzo[e][1,4]diazepin-2-one] the value was 1.91 µM; for `CC[C@H](C)[C@H]1C(=O)Nc2ccc(F)cc2CN1S(N)(=O)=O` [Compound 345, (S)-3-((S)-sec-butyl)-7-fluoro-2-oxo-1,2,3,5-tetrahydro-4H-benzo[e][1,4]diazepine-4-sulfonamide], 2.43 µM; for `CC[C@H](C)[C@H]1C(=O)Nc2ccc(F)cc2CN1C(=O)N1CC(C)(O)C1` [Compound 346, (S)-3-((S)-sec-butyl)-7-fluoro-4-(3-hydroxy-3-methylazetidine-1-carbonyl)-1,3,4,5-tetrahydro-2H-benzo[e][1,4]diazepin-2-one], 1.57 µM.
On to `CC[C@H](C)[C@H]1C(=O)Nc2ccc(F)cc2CN1C(=O)N1CC[C@H](O)C1` [Compound 347, (S)-3-((S)-sec-butyl)-7-fluoro-4-((S)-3-hydroxypyrrolidine-1-carbonyl)-1,3,4,5-tetrahydro-2H-benzo[e][1,4]diazepin-2-one], for which the AC1.4 is 3.59 µM.
For `CC[C@H](C)[C@H]1C(=O)Nc2ccc(F)cc2CN1C(=O)NC` [Compound 348, (S)-3-((S)-sec-butyl)-7-fluoro-N-methyl-2-oxo-1,2,3,5-tetrahydro-4H-benzo[e][1,4]diazepine-4-carboxamide] the value was 0.72 µM.
Then `CC[C@H](C)[C@H]1C(=O)Nc2ccc(F)cc2CN1C(=O)N[C@H]1CCN(CCO)C1` [Compound 349, (S)-3-((S)-sec-butyl)-7-fluoro-N-((S)-1-(2-hydroxyethyl)pyrrolidin-3-yl)-2-oxo-1,2,3,5-tetrahydro-4H-benzo[e][1,4]diazepine-4-carboxamide], with 1.57 µM.
For `CC[C@H](C)[C@H]1C(=O)Nc2ccc(F)cc2CN1C(=O)N[C@H]1CCN(C)C1` [Compound 350, (S)-3-((S)-sec-butyl)-7-fluoro-N-((S)-1-methylpyrrolidin-3-yl)-2-oxo-1,2,3,5-tetrahydro-4H-benzo[e][1,4]diazepine-4-carboxamide] the value was 1.11 µM; for `CC[C@H](C)[C@H]1C(=O)Nc2ccc(F)cc2CN1C(=O)NC1CCN(CCO)CC1` [Compound 351, (S)-3-((S)-sec-butyl)-7-fluoro-N-(1-(2-hydroxyethyl)piperidin-4-yl)-2-oxo-1,2,3,5-tetrahydro-4H-benzo[e][1,4]diazepine-4-carboxamide], 1.17 µM; for `CC[C@H](C)[C@H]1C(=O)Nc2ccc(F)cc2CN1C(=O)N[C@H]1CC[C@H](O)CC1` [Compound 352, (S)-3-((S)-sec-butyl)-7-fluoro-N-((1r,4S)-4-hydroxycyclohexyl)-2-oxo-1,2,3,5-tetrahydro-4H-benzo[e][1,4]diazepine-4-carboxamide], 0.73 µM.
With `CC[C@H](C)[C@H]1C(=O)Nc2ccc(F)cc2CN1C(=O)N[C@H]1CC[C@H](O)C1` [Compound 353, (S)-3-((S)-sec-butyl)-7-fluoro-N-((1S,3S)-3-hydroxycyclopentyl)-2-oxo-1,2,3,5-tetrahydro-4H-benzo[e][1,4]diazepine-4-carboxamide], the AC1.4 came to 1.76 µM.
For `CC[C@H](C)[C@H]1C(=O)Nc2ccc(F)cc2CN1C(=O)N[C@H]1C[C@H](O)C1` [Compound 354, (S)-3-((S)-sec-butyl)-7-fluoro-N-((1r,3S)-3-hydroxycyclobutyl)-2-oxo-1,2,3,5-tetrahydro-4H-benzo[e][1,4]diazepine-4-carboxamide] the value was 1.59 µM; for `CC[C@H](C)[C@H]1C(=O)Nc2ccc(F)cc2CN1C(=O)N[C@H]1C[C@@H](O)C1` [Compound 355, (S)-3-((S)-sec-butyl)-7-fluoro-N-((1s,3R)-3-hydroxycyclobutyl)-2-oxo-1,2,3,5-tetrahydro-4H-benzo[e][1,4]diazepine-4-carboxamide], 1.49 µM; for `CC[C@H](C)[C@H]1C(=O)Nc2cc(F)ccc2CN1C(=O)NC1CCN(CCO)CC1` [Compound 356, (S)-3-((S)-sec-butyl)-8-fluoro-N-(1-(2-hydroxyethyl)piperidin-4-yl)-2-oxo-1,2,3,5-tetrahydro-4H-benzo[e][1,4]diazepine-4-carboxamide], 0.24 µM.
Then `CC[C@H](C)[C@H]1C(=O)Nc2cc(F)ccc2CN1C(=O)N[C@H]1CCN(C)C1` [Compound 358, (S)-3-((S)-sec-butyl)-8-fluoro-N-((S)-1-methylpyrrolidin-3-yl)-2-oxo-1,2,3,5-tetrahydro-4H-benzo[e][1,4]diazepine-4-carboxamide], with 0.40 µM; and `CC[C@H](C)[C@H]1C(=O)Nc2cc(F)ccc2CN1C(=O)N1CC[C@H](O)C1` [Compound 359, (S)-3-((S)-sec-butyl)-8-fluoro-4-((S)-3-hydroxypyrrolidine-1-carbonyl)-1,3,4,5-tetrahydro-2H-benzo[e][1,4]diazepin-2-one], with 0.77 µM; and `CC[C@H](C)[C@H]1C(=O)Nc2cc(F)ccc2CN1C(=O)NC1CCN(C2COC2)CC1` [Compound 360, (S)-3-((S)-sec-butyl)-8-fluoro-N-(1-(oxetan-3-yl)piperidin-4-yl)-2-oxo-1,2,3,5-tetrahydro-4H-benzo[e][1,4]diazepine-4-carboxamide], with 0.37 µM.
As for `CC[C@H](C)[C@H]1C(=O)Nc2cncc(F)c2CN1C(C)=O` [Compound 361, (S)-4-acetyl-3-((S)-sec-butyl)-6-fluoro-1,3,4,5-tetrahydro-2H-pyrido[3,4-e][1,4]diazepin-2-one], the AC1.4 was determined as 1.62 µM.
Then `CC[C@H](C)[C@H]1C(=O)Nc2cncc(F)c2CN1C(=O)CO` [Compound 362, (S)-3-((S)-sec-butyl)-6-fluoro-4-(2-hydroxyacetyl)-1,3,4,5-tetrahydro-2H-pyrido[3,4-e][1,4]diazepin-2-one], with 1.68 µM.
Then `CC[C@H](C)[C@H]1C(=O)Nc2cncc(F)c2CN1C(=O)COC` [Compound 363, (S)-3-((S)-sec-butyl)-6-fluoro-4-(2-methoxyacetyl)-1,3,4,5-tetrahydro-2H-pyrido[3,4-e][1,4]diazepin-2-one], with 2.60 µM; and `CC[C@H](C)[C@H]1C(=O)Nc2cncc(F)c2CN1C(=O)OC` [Compound 364, methyl (S)-3-((S)-sec-butyl)-6-fluoro-2-oxo-1,2,3,5-tetrahydro-4H-pyrido[3,4-e][1,4]diazepine-4-carboxylate], with 3.31 µM.
In the case of `CC[C@H](C)[C@H]1C(=O)Nc2cncc(F)c2CN1/C(N)=N/C#N` [Compound 365, (S,E)-3-((S)-sec-butyl)-N′-cyano-6-fluoro-2-oxo-1,2,3,5-tetrahydro-4H-pyrido[3,4-e][1,4]diazepine-4-carboximidamide], the AC1.4 was 0.19 µM.
Regarding `CC[C@H](C)[C@H]1C(=O)Nc2cncc(F)c2CN1c1c(N)c(=O)c1=O` [Compound 366, 3-amino-4-((S)-3-((S)-sec-butyl)-6-fluoro-2-oxo-1,2,3,5-tetrahydro-4H-pyrido[3,4-e][1,4]diazepin-4-yl)cyclobut-3-ene-1,2-dione], the AC1.4 is 0.21 µM.
Then `CC[C@H](C)[C@H]1C(=O)Nc2cncc(F)c2CN1C(=O)NC` [Compound 367, (S)-3-((S)-sec-butyl)-6-fluoro-N-methyl-2-oxo-1,2,3,5-tetrahydro-4H-pyrido[3,4-e][1,4]diazepine-4-carboxamide], with 1.05 µM; and `CC[C@H](C)[C@H]1C(=O)Nc2cncc(F)c2CN1C(=O)Nc1ccn(C)n1` [Compound 368, (S)-3-((S)-sec-butyl)-6-fluoro-N-(1-methyl-1H-pyrazol-3-yl)-2-oxo-1,2,3,5-tetrahydro-4H-pyrido[3,4-e][1,4]diazepine-4-carboxamide], with 0.41 µM.
Then `CC[C@H](C)[C@H]1C(=O)Nc2cncc(F)c2CN1C(=O)Nc1cc[nH]n1` [Compound 369], with 0.24 µM.
Then `CC[C@H](C)[C@H]1C(=O)Nc2cncc(F)c2CN1C(=O)N1CC(O)C1` [Compound 370, (S)-3-((S)-sec-butyl)-6-fluoro-4-(3-hydroxyazetidine-1-carbonyl)-1,3,4,5-tetrahydro-2H-pyrido[3,4-e][1,4]diazepin-2-one], with 0.88 µM.
In the case of `CC[C@H](C)[C@H]1C(=O)Nc2cncc(F)c2CN1C(=O)COCc1ccccc1` [Compound 371, (S)-4-(2-(benzyloxy)acetyl)-3-((S)-sec-butyl)-6-fluoro-1,3,4,5-tetrahydro-2H-pyrido[3,4-e][1,4]diazepin-2-one], the AC1.4 was 0.50 µM.
Turning to `CC[C@H](C)[C@H]1C(=O)Nc2ccccc2CN1c1c(N2CCOCC2)c(=O)c1=O` [Compound 372, 3-((S)-3-((S)-sec-butyl)-2-oxo-1,2,3,5-tetrahydro-4H-benzo[e][1,4]diazepin-4-yl)-4-morpholinocyclobut-3-ene-1,2-dione], the AC1.4 turned out to be 0.18 µM.
Then `CC[C@H](C)[C@H]1C(=O)Nc2cnccc2CN1C(=O)c1cnn(C)c1` [Compound 373, (S)-3-((S)-sec-butyl)-4-(1-methyl-1H-pyrazole-4-carbonyl)-1,3,4,5-tetrahydro-2H-pyrido[3,4-e][1,4]diazepin-2-one], with 0.66 µM; and `CC[C@H](C)[C@H]1C(=O)Nc2cnccc2CN1c1c(NCCO)c(=O)c1=O` [Compound 374, 3-((S)-3-((S)-sec-butyl)-2-oxo-1,2,3,5-tetrahydro-4H-pyrido[3,4-e][1,4]diazepin-4-yl)-4-((2-hydroxyethyl)amino)cyclobut-3-ene-1,2-dione], with 0.42 µM.
